Our source for the Ki values is ChEMBL document CHEMBL1149916, “Natural products, small molecules, and genetics in tuberculosis drug development” (J Med Chem, 2008).

Test [1] deals with T1, Enoyl-[acyl-carrier-protein] reductase [NADH] (Mycobacterium tuberculosis, UniProt P9WGR1).
T1 sequence (P9WGR1 whole entry): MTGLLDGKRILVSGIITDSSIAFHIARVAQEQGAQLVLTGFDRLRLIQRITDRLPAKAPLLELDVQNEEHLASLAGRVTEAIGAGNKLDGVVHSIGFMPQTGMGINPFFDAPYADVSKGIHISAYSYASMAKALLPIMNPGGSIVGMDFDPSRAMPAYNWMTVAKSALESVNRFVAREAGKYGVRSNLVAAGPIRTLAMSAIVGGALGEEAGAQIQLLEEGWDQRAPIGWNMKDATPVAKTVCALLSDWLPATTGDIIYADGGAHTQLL
Put plainly: Inhibition of Mycobacterium tuberculosis Enoyl-[acyl-carrier-protein] reductase.

Test [2] in a line: Inhibition of Mycobacterium tuberculosis acyl-CoA corboxylase corboxyltransferase domain 5.

One may read the Ki as a dissociation constant, usually derived from enzyme kinetics or from competition with a known ligand. `CCCCCCCCc1ccc(Oc2ccccc2)c(O)c1` gave a Ki in test [1] of 0.001 µM. As to `Nc1ccc(/N=N/c2ccc(-c3ccc(O)cc3)cc2)c2ccc(S(=O)(=O)O)cc12`, the Ki in test [2] stood at 13 µM.
